From US20240124442A1, “TRICYCLIC-AMIDO-BICYCLIC PRMT5 INHIBITORS” (AMGEN INC., priority 2021, published 2024)
pIC50: −log10 of the molar value.

Tests used:
[1] = tested on: HCT116 MTAP null cells; experiment: HCT116 MTAP null cell line proliferation / cell viability (CellTiter-Glo, 6 days); type: cell-based; conditions: 144 h; HCT116 MTAP null cells, 6 days treatment, CellTiter-Glo cell viability; read-out: HCT-116 MTAP null IC50
Outline: (§1)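 CellTiter-Glo luminescence read after 6 days of compound exposure in parental and MTAP-null HCT116 cells grown in RPMI 1640/10% FBS. Dilution series: 1:3 steps, 8–9 points, top 1 or 10 μM; or 1:2 steps, 22 points, top 10 or 50 μM. IC50 = curve transit through 50% of control.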

[2] = tested on: HCT116 WT cells; experiment: HCT116 WT (parent) cell line proliferation / cell viability (CellTiter-Glo, 6 days); type: cell-based; conditions: Homo sapiens, HCT-116, 144 h, 6 days treatment
Outline: as §1

| SMILES | pIC50 [1] | pIC50 [2] |
| --- | --- | --- |
| CN(C(=O)c1cc2c3c(c(N)nc2cc1Cl)COC3)[C@H]1COc2cc(S(C)(=O)=O)ccc21 (single isomer, unassigned) [Example 565] | 6.07 | 4.82 |
| CN(C(=O)c1cc2c3c(c(N)nc2cc1Cl)COC3)[C@@H]1COc2cc(C(F)(F)F)cc(F)c21 (single isomer, unassigned) [Example 566] | 7.89 | 6.35 |
| CN(C(=O)c1cc2c3c(c(N)nc2cc1Cl)COC3)[C@H]1COc2cc(C(F)(F)F)cc(F)c21 (single isomer, unassigned) [Example 567] | 6.50 | 5.01 |
| CN(C(=O)c1cc2c(cn1)nc(N)c1cnn(C)c12)[C@@H]1COc2cc(C(F)(F)F)ncc21 (single isomer, unassigned) [Example 568] | 7.01 | 5.24 |
| CN(C(=O)c1cc2c(cc1F)nc(N)c1cnn(C)c12)[C@@H]1COc2cc(OC(F)F)ccc21 (single isomer, unassigned) [Example 569] | 8.22 | 6.65 |
| CN(C(=O)c1cc2c(cc1F)nc(N)c1cnn(C)c12)[C@H]1COc2cc(OC(F)F)ccc21 (single isomer, unassigned) [Example 570] | 6.87 | 5.04 |
| CN(C(=O)c1cc2c(cc1F)nc(N)c1cnn(C)c12)[C@@H]1COc2cc(C(F)(F)F)ccc21 (single isomer, unassigned) [Example 571] | 8.00 | 6.94 |
| CN(C(=O)c1cc2c(cc1F)nc(N)c1cnn(C)c12)[C@H]1COc2cc(C(F)(F)F)ccc21 (single isomer, unassigned) [Example 572] | 6.12 | 4.95 |
| CN(C(=O)c1cc2c(cc1F)nc(N)c1cnn(C)c12)[C@@H]1COc2cc(C(F)(F)F)ncc21 (single isomer, unassigned) [Example 573] | 7.92 | 6.16 |
| CN(C(=O)c1cc2c(cc1F)nc(N)c1cnn(C)c12)[C@H]1COc2cc(C(F)(F)F)ncc21 (single isomer, unassigned) [Example 574] | 6.38 | 4.40 |
| CN(C(=O)c1ccc2nc(N)c3c(cnn3C)c2c1)[C@@H]1COc2cc(C(F)(F)F)ccc21 (single isomer, unassigned) [Example 575] | 6.75 | 5.12 |
| CN(C(=O)c1ccc2nc(N)c3c(cnn3C)c2c1)[C@H]1COc2cc(C(F)(F)F)ccc21 (single isomer, unassigned) [Example 576] | 5.31 | 4.88 |
| CN(C(=O)c1cc2c(cc1F)nc(N)c1c2cnn1C)[C@@H]1COc2cc(OC(F)F)ccc21 (single isomer, unassigned) [Example 577] | 6.88 | 4.79 |
| CN(C(=O)c1ccc2nc(N)c3c(c2c1)COC3)[C@@H]1CCOc2cc(C(F)(F)F)ccc21 (single isomer, unassigned) [Example 578] | 6.65 | 5.23 |
| CN(C(=O)c1ccc2nc(N)c3c(c2c1)COC3)[C@H]1CCOc2cc(C(F)(F)F)ccc21 (single isomer, unassigned) [Example 579] | 5.63 | 5.35 |
| CCN(C(=O)c1ccc2nc(N)c3c(c2c1)COC3)[C@@H]1COCc2cc(Br)ccc21 (single isomer, unassigned) [Example 580] | 7.72 | 6.01 |
| CCN(C(=O)c1ccc2nc(N)c3c(c2c1)COC3)[C@H]1COCc2cc(Br)ccc21 (single isomer, unassigned) [Example 581] | 6.10 | 4.75 |
| COc1ccc2c(c1)COC[C@H]2N(C)C(=O)c1cc2c3c(c(N)nc2cn1)COC3 (single isomer, unassigned) [Example 582] | 7.12 | 5.25 |

| SMILES | pIC50 [1] | pIC50 [2] |
| --- | --- | --- |
| CN(C(=O)c1cc2c3c(c(N)nc2cn1)COC3)[C@@H]1COCc2ccc(C(F)(F)F)cc21 (single isomer, unassigned) [Example 583] | 6.39 | 5.05 |
| CN(C(=O)c1cc2c3c(c(N)nc2cn1)COC3)[C@H]1COCc2ccc(C(F)(F)F)cc21 (single isomer, unassigned) [Example 584] | 5.16 | 4.30 |
| CN(C(=O)c1cc2c3c(c(N)nc2cn1)COC3)[C@@H]1CCOc2cc(C(F)(F)F)ccc21 (single isomer, unassigned) [Example 585] | 6.59 | 4.90 |
| CN(C(=O)c1cc2c3c(c(N)nc2cn1)COC3)[C@H]1CCOc2cc(C(F)(F)F)ccc21 (single isomer, unassigned) [Example 586] | 5.52 | 5.00 |
| CCN(C(=O)c1cc2c3c(c(N)nc2cn1)COC3)[C@@H]1COCc2cc(Br)ccc21 (single isomer, unassigned) [Example 587] | 7.68 | 6.24 |
| CCN(C(=O)c1cc2c3c(c(N)nc2cn1)COC3)[C@H]1COCc2cc(Br)ccc21 (single isomer, unassigned) [Example 588] | 5.70 | 5.00 |
| CN(C(=O)c1cnc2nc(N)c3c(c2c1)COC3)[C@H]1COCc2cc(Br)ccc21 (single isomer, unassigned) [Example 589] | 5.10 | 4.46 |
| CN(C(=O)c1cnc2nc(N)c3c(c2c1)COC3)[C@@H]1COCc2cc(Br)ccc21 (single isomer, unassigned) [Example 590] | 6.89 | 5.35 |
| CN(C(=O)c1cc2c3c(c(N)nc2cc1F)COC3)[C@@H]1COCc2cc(S(C)(=O)=O)ccc21 (single isomer, unassigned) [Example 591] | 7.59 | 5.79 |
| C[C@H]1OCc2c1c(N)nc1cc(F)c(C(=O)N(C)[C@@H]3COCc4cc(S(C)(=O)=O)ccc43)cc21 (single isomer, unassigned) [Example 592] | 7.68 | 5.99 |
| Cn1ncc2c(N)nc3ccc(C(=O)N(CC4CC4)[C@@H]4COCc5nc(C(F)(F)F)ccc54)cc3c21 (single isomer, unassigned) [Example 593] | 8.30 | 6.70 |
| Cn1ncc2c(N)nc3ccc(C(=O)N(CC4CC4)[C@H]4COCc5nc(C(F)(F)F)ccc54)cc3c21 (single isomer, unassigned) [Example 594] | 6.64 | 4.71 |
| CN(C(=O)c1cc2c(cc1F)nc(N)c1cnn(C)c12)[C@@H]1COCc2cc(C#N)ccc21 (single isomer, unassigned) [Example 595] | 8.30 | 6.56 |
| CN(C(=O)c1cc2c(cc1F)nc(N)c1cnn(C)c12)[C@H]1COCc2cc(C#N)ccc21 (single isomer, unassigned) [Example 596] | 6.73 | 4.77 |
| CN(C(=O)c1cc2c(cc1F)nc(N)c1cnn(C)c12)[C@@H]1COCc2c1ccc(F)c2F (single isomer, unassigned) [Example 597] | 7.82 | 6.10 |
| CN(C(=O)c1cc2c(cc1F)nc(N)c1cnn(C)c12)[C@H]1COCc2c1ccc(F)c2F (single isomer, unassigned) [Example 598] | 6.38 | 5.00 |
| CN(C(=O)c1cc2c(cc1F)nc(N)c1cnn(C)c12)[C@@H]1COCc2cc(C(F)(F)F)cnc21 (single isomer, unassigned) [Example 599] | 7.19 | 5.42 |
| CN(C(=O)c1cc2c(cc1F)nc(N)c1cnn(C)c12)[C@@H]1COCc2cc(S(C)(=O)=O)ccc21 (single isomer, unassigned) [Example 600] | 8.00 | 6.65 |
